Source: ChEMBL document CHEMBL1201862, “PubChem BioAssay data set” (2004)
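Dose response: 5 concentrations. Exposure: 48 h. Format: 96-well plates. Endpoint: linear interpolation; highest concentration if not reached. Abbreviation: GI50, concentration required for 50% inhibition of growth.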 Active and inactive are the calls of the source. Rule as the data show it: active = GI50 up to about 1.1 µM and inactive = higher.

Assays:
Test in all cases: NCI anticancer screen, dose series, 48 h
SF-268 = test system: SF-268
SW-620 = test system: SW-620
A498 = test system: A498
SF-539 = test system: SF-539
MDA-N = test system: MDA-N
Malme-3M = test system: Malme-3M
TK-10 = test system: TK-10
MDA-MB-231 = test system: MDA-MB-231
SNB-75 = test system: SNB-75
U-251 = test system: U-251
CAKI-1 = test system: CAKI-1
IGROV-1 = test system: IGROV-1
NCI-H23 = test system: NCI-H23
SK-MEL-2 = test system: SK-MEL-2
HCT-15 = test system: HCT-15
MCF7 = test system: MCF7
OVCAR-8 = test system: OVCAR-8
UACC-62 = test system: UACC-62
NCI-H460 = test system: NCI-H460

SMILES	GI50 (SF-268)	GI50 (SW-620)	GI50 (A498)	GI50 (SF-539)	GI50 (MDA-N)	GI50 (Malme-3M)	GI50 (TK-10)	GI50 (MDA-MB-231)	GI50 (SNB-75)	GI50 (U-251)	GI50 (CAKI-1)	GI50 (IGROV-1)	GI50 (NCI-H23)	GI50 (SK-MEL-2)	GI50 (HCT-15)	GI50 (MCF7)	GI50 (OVCAR-8)	GI50 (UACC-62)	GI50 (NCI-H460)
COC1(CC[C@H](C)COC2OC(CO)C(O)C(O)C2O)O[C@H]2C[C@H]3[C@@H]4CC=C5C[C@@H](OC6OC(CO)C(OC7OC(C)C(O)C(O)C7O)C(O)C6OC6OC(C)C(O)C(O)C6O)CC[C@]5(C)[C@H]4CC[C@]3(C)[C@H]2[C@@H]1C (stereo partly specified)	3.24 µM (inactive)	2.67 µM (inactive)	23.5 µM (inactive)	1.96 µM (inactive)	2.88 µM (inactive)	3.45 µM (inactive)	35.6 µM (inactive)	5.05 µM (inactive)	1.86 µM (inactive)	2.4 µM (inactive)	1.48 µM (inactive)	6.73 µM (inactive)	5.53 µM (inactive)	3.78 µM (inactive)	2.68 µM	8.45 µM (inactive)	3.37 µM (inactive)	–	–
CCOC(=O)c1[nH]cc(C)c1-c1ccc2c(-c3ccccc3)nc3ccccc3n12	3.94 µM (inactive)	3.13 µM (inactive)	2.84 µM (inactive)	3.12 µM (inactive)	2.66 µM (inactive)	–	3.21 µM (inactive)	3.13 µM (inactive)	1.85 µM (inactive)	3.01 µM (inactive)	5.89 µM (inactive)	3.66 µM (inactive)	5.05 µM (inactive)	4.29 µM (inactive)	3.55 µM	2.1 µM (inactive)	4.25 µM (inactive)	2.73 µM (inactive)	2.92 µM (inactive)
COC(=O)Cc1c([C@@H]2Nc3ccccc3[C@H]2CC(=O)OC)[nH]c2ccccc12	31.1 µM (inactive)	46.8 µM (inactive)	34.7 µM (inactive)	20.5 µM (inactive)	28.7 µM (inactive)	–	44.2 µM (inactive)	18.5 µM (inactive)	36.9 µM (inactive)	20.4 µM (inactive)	47.2 µM (inactive)	9.79 µM (inactive)	27 µM (inactive)	17.7 µM (inactive)	5.02 µM	25.4 µM (inactive)	33.7 µM (inactive)	13.9 µM (inactive)	21.1 µM (inactive)
CCOC(=O)c1cc(C)n(CN(CCO)Cn2nc(C(=O)OCC)cc2C)n1	34.9 µM (inactive)	28.3 µM (inactive)	> 100 µM (inactive)	17.7 µM (inactive)	29.2 µM (inactive)	27.1 µM (inactive)	80.2 µM (inactive)	27.9 µM (inactive)	–	35.3 µM (inactive)	36.2 µM (inactive)	29.4 µM (inactive)	21.1 µM (inactive)	19.9 µM (inactive)	21.5 µM	28.2 µM (inactive)	22.7 µM (inactive)	17.8 µM (inactive)	66.5 µM (inactive)
COc1cc(OC)c2nc(C)c3c(c2c1)SCC3	19.4 µM (inactive)	27 µM (inactive)	18.6 µM (inactive)	18.5 µM (inactive)	28.8 µM (inactive)	24.7 µM (inactive)	19.5 µM (inactive)	21.1 µM (inactive)	–	29.8 µM (inactive)	16.1 µM (inactive)	17.2 µM (inactive)	31.9 µM (inactive)	27.7 µM (inactive)	42.3 µM	15.6 µM (inactive)	19 µM (inactive)	22.9 µM (inactive)	23.7 µM (inactive)
O=S(=O)(O)c1ccc(/N=N/c2ccc3c(S(=O)(=O)O)cccc3c2O)c2ccccc12	> 100 µM (inactive)	> 100 µM (inactive)	> 100 µM (inactive)	–	> 100 µM (inactive)	> 100 µM (inactive)	> 100 µM (inactive)	> 100 µM (inactive)	> 100 µM (inactive)	> 100 µM (inactive)	> 100 µM (inactive)	> 100 µM (inactive)	> 100 µM (inactive)	> 100 µM (inactive)	> 100 µM	> 100 µM (inactive)	> 100 µM (inactive)	> 100 µM (inactive)	–
CN(C)c1ccc(C2CC(C)(O)Oc3cc4c(cc32)OCO4)cc1 (stereo unspecified)	46.7 µM (inactive)	35.3 µM (inactive)	–	34.1 µM (inactive)	18.6 µM (inactive)	67 µM (inactive)	59.3 µM (inactive)	18.2 µM (inactive)	25.3 µM (inactive)	43.8 µM (inactive)	66.2 µM (inactive)	1.73 µM (inactive)	71.8 µM (inactive)	22.2 µM (inactive)	29.9 µM	38.4 µM (inactive)	29.5 µM (inactive)	21.6 µM (inactive)	40.9 µM (inactive)
Cc1ccc(/N=C2\C(=O)C3=C(OC(C)(C)CC3)c3ccccc32)cc1	1.53 µM (inactive)	0.738 µM (active)	2.06 µM (inactive)	–	0.183 µM (active)	0.352 µM (active)	2.27 µM (inactive)	1.68 µM (inactive)	1.26 µM (inactive)	0.577 µM (active)	1.71 µM (inactive)	0.703 µM (active)	1.08 µM (active)	1.7 µM (inactive)	0.415 µM	0.29 µM (active)	0.357 µM (active)	1.49 µM (inactive)	1.58 µM (inactive)
C=CCN1CCC2(CC1)NC(=O)c1ccccc1O2	> 100 µM (inactive)	> 100 µM (inactive)	–	> 100 µM (inactive)	> 100 µM (inactive)	> 100 µM (inactive)	> 100 µM (inactive)	> 100 µM (inactive)	> 100 µM (inactive)	> 100 µM (inactive)	> 100 µM (inactive)	> 100 µM (inactive)	> 100 µM (inactive)	> 100 µM (inactive)	> 100 µM	> 100 µM (inactive)	> 100 µM (inactive)	> 100 µM (inactive)	> 100 µM (inactive)
COc1ccc(-n2cnc3c2=NC(C)(C)NC=3C(N)=O)c(OC)c1	> 100 µM (inactive)	> 100 µM (inactive)	> 100 µM (inactive)	> 100 µM (inactive)	> 100 µM (inactive)	> 100 µM (inactive)	> 100 µM (inactive)	> 100 µM (inactive)	> 100 µM (inactive)	> 100 µM (inactive)	> 100 µM (inactive)	> 100 µM (inactive)	> 100 µM (inactive)	–	> 100 µM	> 100 µM (inactive)	> 100 µM (inactive)	> 100 µM (inactive)	> 100 µM (inactive)
CCOC(=O)NC(OC)(C(F)(F)F)C(F)(F)F	> 100 µM (inactive)	> 100 µM (inactive)	> 100 µM (inactive)	> 100 µM (inactive)	> 100 µM (inactive)	> 100 µM (inactive)	> 100 µM (inactive)	> 100 µM (inactive)	> 100 µM (inactive)	> 100 µM (inactive)	> 100 µM (inactive)	> 100 µM (inactive)	> 100 µM (inactive)	–	> 100 µM	> 100 µM (inactive)	> 100 µM (inactive)	> 100 µM (inactive)	> 100 µM (inactive)
CC(C)c1cc(=O)[nH]c2cc(N)ccc12	–	> 100 µM (inactive)	> 100 µM (inactive)	> 100 µM (inactive)	> 100 µM (inactive)	–	–	> 100 µM (inactive)	86.9 µM (inactive)	> 100 µM (inactive)	> 100 µM (inactive)	> 100 µM (inactive)	> 100 µM (inactive)	> 100 µM (inactive)	> 100 µM	> 100 µM (inactive)	> 100 µM (inactive)	93.8 µM (inactive)	> 100 µM (inactive)
CCOC(=O)c1ccc2nc3n(c2c1)C(c1c(F)cccc1F)SC3 (stereo unspecified)	> 100 µM (inactive)	> 100 µM (inactive)	> 100 µM (inactive)	> 100 µM (inactive)	> 100 µM (inactive)	–	> 100 µM (inactive)	> 100 µM (inactive)	> 100 µM (inactive)	> 100 µM (inactive)	> 100 µM (inactive)	86.7 µM (inactive)	78.9 µM (inactive)	> 100 µM (inactive)	> 100 µM	56.8 µM (inactive)	> 100 µM (inactive)	> 100 µM (inactive)	> 100 µM (inactive)
Cc1ccc(C2SCC(=O)N2c2ccc(-c3ccc(-n4c(-c5ccccc5)nc5ccccc5c4=O)cc3)cc2)cc1 (stereo unspecified)	33.8 µM (inactive)	> 100 µM (inactive)	> 100 µM (inactive)	–	80 µM (inactive)	> 100 µM (inactive)	> 100 µM (inactive)	92.9 µM (inactive)	–	73.3 µM (inactive)	> 100 µM (inactive)	25.3 µM (inactive)	> 100 µM (inactive)	> 100 µM (inactive)	62.5 µM	> 100 µM (inactive)	> 100 µM (inactive)	> 100 µM (inactive)	59.6 µM (inactive)
C=CC1CCC[N+]1(CC(=O)OCC)Cc1ccccc1 (stereo unspecified)	> 100 µM (inactive)	> 100 µM (inactive)	> 100 µM (inactive)	–	> 100 µM (inactive)	> 100 µM (inactive)	> 100 µM (inactive)	> 100 µM (inactive)	> 100 µM (inactive)	> 100 µM (inactive)	–	> 100 µM (inactive)	> 100 µM (inactive)	–	> 100 µM	> 100 µM (inactive)	> 100 µM (inactive)	> 100 µM (inactive)	> 100 µM (inactive)
CO/C(=N\N=C\c1ccc(OC)c(OC)c1)c1ccncc1	> 10 µM (inactive)	> 10 µM (inactive)	> 10 µM (inactive)	> 10 µM (inactive)	> 10 µM (inactive)	> 10 µM (inactive)	> 10 µM (inactive)	> 10 µM (inactive)	> 10 µM (inactive)	> 10 µM (inactive)	> 10 µM (inactive)	> 10 µM (inactive)	> 10 µM (inactive)	–	> 10 µM	> 10 µM (inactive)	> 10 µM (inactive)	> 10 µM (inactive)	> 10 µM (inactive)
